Results from patent US12389905B2, “Synergistic mixture of plant defense inductors” (LIDA PLANT RESEARCH S.L., priority 2018, dated 2025).
Like-named read-outs stand apart in the source and are kept apart here.

Columns and labels:
Type in all cases: in vivo
[1] = tested on: Pyricularia oryzae on rice; settings: soil drench
[2] = tested on: Pseudomonas syringae pv. Lachrymans on cucumber; experiment: Bacterial spot on cucumber, greenhouse disease control; settings: Test 4; spray; 100 ppm
Method: The experiments were carried out under controlled greenhouse conditions. The effects of temperature, humidity and light conditions in the greenhouse chambers were adjusted according to host plants and pathogens needs.
The efficacy or disease control value (W) was calculated according to Abbott's formula: W=(1−x/y)×100 wherein • x=percentage of fungal or bacterial infection in treated plants • y=percentage of fungal or bacterial infection in untreated control plants
An efficacy of 0 means the infection level of the treated plants corresponds to that of the untreated control plants; and efficacy of 100 means that the treated plants are not infected.
In order to evaluate if there is a synergistic effect between different possible combinations, Limpel/Colby's formula was used.
Synergy Factor (F)=OV(A+B)/CEV(A+B) 1. Podosphaera xanthii on Cucumber
1.2-leaf stage cucumber plants (cv. Suzunari-suyo), grown in pots under controlled conditions, were treated by spraying of the leaves with the mixture in question, dispersed in an aqueous solution. After 2 days, plants were inoculated and infected with an aqueous suspension of Pseudomonas syringae pv. Lachrymans (1×10^8 cfu/ml), and they were kept in a growth chamber at 25° C. and 90% RH. 7 days after pathogen inoculation, infection levels were assessed and percentages of disease control and expected values were calculated according to Abbott's and Colby's formulas, respectively.

[3] = tested on: PR1 (PATHOGENESIS-RELATED PROTEIN 1) gene; experiment: PR1 gene expression (qPCR) in sprayed Arabidopsis thaliana plants; settings: 37.5 ppm
[4] = tested on: Colletotrichum orbiculare on cucumber; experiment: Anthracnose on cucumber, greenhouse disease control; settings: spray; 100 ppm
[5] = tested on: Pseudomonas cannbina pv. alisalensis on Chinese cabbage; settings: leaf spray

Which results are given for `CSC(=O)c1cccc2nnsc12` [Acibenzolar-S-methyl, acibenzolar-S-methyl]?
Percentage of disease control B ([1]; Test 2, B alone 4 ppm): 29%; Percentage of disease control B ([1]; Test 2, B alone 10 ppm): 49%; Percentage of disease control B ([1]; Test 2, B alone 20 ppm): 87%; Percentage of disease control B ([1]; Test 2, B alone 40 ppm): 83%; Percentage of disease control B ([1]; Test 2, B alone 100 ppm): 70%; Percentage of disease control B ([1]; Test 3, B alone 100 ppm): 71%; Percentage of disease control B ([1]; Test 4, B alone 100 ppm): 71%; Percentage of disease control OV A or B (single component) [2]: 86%; PR1 gene activation OV A or B (single component) ([3]; 24 hpt): 32.19 n-fold; PR1 gene activation OV A or B (single component) ([3]; 48 hpt): 72.31 n-fold; Percentage of disease control OV A or B (single component) [4]: 92%; Percentage of disease control B ([5]; Combinations with Carrageenan, Test 1, B alone 100 ppm): 85%; Percentage of disease control B ([5]; Combinations with Chitooligosaccharides, Test 2, B alone 4 ppm): 5%; Percentage of disease control B ([5]; Combinations with Chitooligosaccharides, Test 2, B alone 10 ppm): 18%; Percentage of disease control B ([5]; Combinations with Chitooligosaccharides, Test 2, B alone 20 ppm): 12%; Percentage of disease control B ([5]; Combinations with Chitooligosaccharides, Test 2, B alone 40 ppm): 84%; Percentage of disease control B ([5]; Combinations with Chitooligosaccharides, Test 2, B alone 100 ppm): 89%; Percentage of disease control B ([5]; Combinations with Chitooligosaccharides, Test 3, B alone 10 ppm): 35%; Percentage of disease control B ([5]; Combinations with Chitooligosaccharides, Test 3, B alone 20 ppm): 17%; Percentage of disease control B ([5]; Combinations with Chitooligosaccharides, Test 3, B alone 40 ppm): 95%; Percentage of disease control B ([5]; Combinations with Chitooligosaccharides, Test 3, B alone 100 ppm): 98%
